We go through 1 compound from patent US20120288482A1, “THERAPEUTIC AGENT (Y-39983) FOR CORNEAL ENDOTHELIAL DYSFUNCTION” (priority 2009, published 2012).

The subject of experiment [1] is corneal endothelial wound. Briefly: Rabbit corneal endothelial wound model, topical instillation (Example 1). Format: in vivo. The conditions noted are these: 10 mM instillation, 6 times a day, 46 hours after wound creation. The method, then: In this Example, 0.95 mM (0.03 w/v%) compound (I) instillation and 0.32 mM (0.01 w/v%) compound (I) instillation obtained by diluting the above instillation with the above-mentioned vehicle were used.
As a positive control substances, Y-27632 dihydrochloride (Wako Pure Chemical Industries, Co., Ltd., Cat. #253-00513) and fasudil hydrochloride hydrate injection (Eril (registered trade mark) drip intravenous injection, Asahi Kasei Pharma) were purchased, and Y-27632 and Fasudil were each adjusted to 10 mM with phosphate-buffered saline (PBS, Invitrogen, Cat. #14190). In addition, PBS was used as a negative control substance.
Male Japanese white rabbits (body weight 2.5-3.0 kg, 21 rabbits) were purchased from Biotek Co., Ltd. and used. They are kept in individual cages at 23±3° C. temperature, at 55±10% humidity and 12 hours artificial light cycle (lighting on; 8:00 a.m., lighting off; 8:00 p.m.). One hundred grams of solid food (Labo R stock; Nosan Corp.) are provided daily to each animal. Water is supplied by automatic watering apparatus.
3. Excision of Nictitating Membrane of Animal Before starting the test, the nictitating membrane of both eyes of the animal was excised. To be specific, each animal was set in a positioner, and the ocular surface was topically anesthetized by instillation of a topical anesthesia (Benoxil instillation 0.4%, Santen Pharmaceutical Co., Ltd.). Then, the root position of the nictitating membrane was pressed with a clamp for 30 sec, and compressing mark was cut with scissors. After excision of the nictitating membrane, the antibiotic ointment (tarivid eye ointment, Santen Pharmaceutical Co., Ltd.) was instilled to prevent infection. After 4 days from the excision of the nictitating membrane, animals confirmed to have no abnormality in the external eye including the excised site were used.
The corneal thickness of the right eye of each animal was measured with an ultrasonic pachymeter (manufactured by DGH Technologies Inc., DGH-500), and the animals were divided into 4 groups such that the corneal thickness of each group was equal. The animals used for each group were as follows. • 10 mM Y-27632 group=5 eyes • 0.32 mM compound (I) group=5 eyes • 0.95 mM compound (I) group=6 eyes • 10 mM Fasudil group=5 eyes • PBS group=21 eyes (left eye)
The animals were sytemically anesthetized by intramuscular administration of Ketalar muscular injection ([…], DAIICHI SANKYO COMPANY, LIMITED., 0.6 ml) and Celactal 2% Injection (Bayer, Ltd., 0.25 ml). Then, Benoxil instillation 0.4% (Santen Pharmaceutical Co., Ltd., one drop) was instilled and the eye was opened using a lid speculum.
A 7-mm diameter stainless dowel that had been cooled in liquid nitrogen was placed on the central cornea of both eyes of 21 animals for 15 sec. to produce an ice ball in the anterior chamber and dissociate corneal endothelial cells, whereby a corneal endothelial wound was produced.
For topical instillation, after wound creation, compound (I) instillation, Y-27632 instillation or Fasudil instillation was instilled to the right eye, and PBS was instilled to the left eye 6 times a day (4 times on the day of wound production) at 50 μL per instillation. Administration interval in one day was 2 hours. […]

Experiment [2] has as its system cultured monkey corneal endothelial cells. The following applies: in vitro; cited from earlier work.

In the case of `O=S(=O)(c1cccc2cnccc12)N1CCCNCC1` [Fasudil], the “area of the unrepaired wound site (corneal endothelium wound area)” value in experiment [1] was 1.7 mm^2. In experiment [2], the apoptosis entry is on record as “suppression of apoptosis”, the cell adhesion result is reported as “promotion of cell adhesion” and the cell cycle entry is “promotion of cell cycle”.
